Here are results for 13 compounds from patent publication US12564638B2 (SHANGHAITECH UNIVERSITY, priority 2019, dated 2026).

Experiment [1] deals with PC9 cells (EGFR Exon 19 del, non-small cell lung cancer cells). Put plainly: Cell viability assay (WST/CCK8), PC9 cells. Format: cell-based. To be noted: Homo sapiens, PC-9, PC9 (Exon19 Del), 72 hours, read-out: IC50 (half inhibitory concentration). An excerpt:
The cell lines with abnormal EGFR expression used are as follows: • HCC827 cells (EGFR Exon19 del, non-small cell lung cancer cells); • PC9 cells (EGFR Exon 19 del, non-small cell lung cancer cells); • PC9BracA1 (EGFR Exon 19 del+T790M, non-small cell lung cancer cells) • H1975 (EGFR Exon T790M+L858R mutation, non-small cell lung cancer cell line) • BT474 cells (HER2 positive breast cancer cells)
All of the half inhibitory concentrations (IC50) of these compounds of the present invention were determined with WST reagent from Fuyuan Biotec Company. The specific experiment procedures are as follows: Cancer cells were planted in 96-well-plate at the density of 3 000 cells per well with 100 μL RPMI1640 completed culture medium. In the next day, compounds with indicated concentrations were added to the cells, DMSO was used as the negative control and the EGFR TKIs were used to treat cells as the positive groups. After 72 hours drug treatment, cell viability was measured by using the WST reagent following the instructions.
The cells were treated with the gradient concentration of these compounds (the maximum concentration: 10 μM; 3-fold dilution ratio, 10 concentration gradients) for 72 hours and then incubated with the WST (CCK8) reagent to determine the cell viability.

In experiment [2] the test system is HCC827 cells (EGFR Exon19 del, non-small cell lung cancer cells). The experiment can be described thus: Cell viability assay (WST/CCK8), HCC827 cells. Format: cell-based. To be noted: Homo sapiens, HCC827, 72 h, HCC827 (Exon19 Del), 72 hours, read-out: IC50 (half inhibitory concentration). The gist of the method: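 Cells seeded at 3 000/well in RPMI1640 complete medium, dosed next day with compounds (top 10 μM, 3-fold, 10 points) for 72 h. Viability read with WST (CCK8) reagent; DMSO as negative control, EGFR TKIs as positive controls; IC50 determined.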

Where [3] appears, read: Table 6, canertinib-based compounds, WST.

Like-named read-outs stand apart in the source and are kept apart here.

For the compound `COc1cc2ncnc(Nc3ccc(F)c(Cl)c3)c2cc1NC(=O)/C=C/CN1CCC(NC(=O)CCCSc2cccc3c2CN(C2CCC(=O)NC2=O)C3=O)CC1` (centres unmarked) [SIAIS262112, (E)-N-(4-((3-chloro-4-fluorophenyl)amino)-7-methoxyquinazolin-6-yl)-4-(4-(4-((2-(2,6-dioxopiperidin-3-yl)-1-oxoisoindolin-4-yl)thio)butanamido)piperidin-1-yl)but-2-enamide], the IC50 in experiment [1] (WST (CCK8)) was found to be 42.5 nM; in experiment [2] (WST (CCK8)), 14 nM.

Take `COc1cc2ncnc(Nc3ccc(F)c(Cl)c3)c2cc1NC(=O)/C=C/CN1CCN(C(=O)CCC(=O)N[C@H](C(=O)N2C[C@H](O)C[C@H]2C(=O)NCc2ccc(-c3scnc3C)cc2)C(C)(C)C)CC1` [SIAIS249041, (2S,4R)-1-((S)-2-(4-(4-((E)-4-((4-((3-chloro-4-fluorophenyl)amino)-7-methoxyquinazolin-6-yl)amino)-4-oxobut-2-en-1-yl)piperazin-1-yl)-4-oxobutanamido)-3,3-dimethylbutanoyl)-4-hydroxy-N-(4-(4-methylthiazol-5-yl)benzyl)pyrrolidine-2-carboxamide]: the IC50 in experiment [1] (WST (CCK8)) was found to be 99 nM; in experiment [2] (WST (CCK8)) it was 38.3 nM.

Turning to `COc1cc2ncnc(Nc3ccc(F)c(Cl)c3)c2cc1NC(=O)/C=C/CN1CCC(N2CCN(C(=O)CCCCCOc3cccc4c3CN(C3CCC(=O)NC3=O)C4=O)CC2)CC1` (centres unmarked) [SIAIS337027, (E)-N-(4-((3-chloro-4-fluorophenyl)amino)-7-methoxyquinazolin-6-yl)-4-(4-(4-(6-((2-(2,6-dioxopiperidin-3-yl)-1-oxoisoindolin-4-yl)oxy)hexanoyl)piperazin-1-yl)piperidin-1-yl)but-2-enamide], the IC50 amounted to 13.2 nM in experiment [1] (WST (CCK8)) and 1.1 nM in experiment [2] (WST (CCK8)).

Consider `COc1cc2ncnc(Nc3ccc(F)c(Cl)c3)c2cc1NC(=O)/C=C/CN1CCC(N2CCN(C(=O)CCCCOc3cccc4c3CN(C3CCC(=O)NC3=O)C4=O)CC2)CC1` (centres unmarked) [SIAIS337026, (E)-N-(4-((3-chloro-4-fluorophenyl)amino)-7-methoxyquinazolin-6-yl)-4-(4-(4-(5-((2-(2,6-dioxopiperidin-3-yl)-1-oxoisoindolin-4-yl)oxy)pentanoyl)piperazin-1-yl)piperidin-1-yl)but-2-enamide], for which the results for the IC50 in experiment [1] (WST (CCK8)) and in experiment [2] (WST (CCK8)) were 8.6 nM and 0.5 nM, respectively.

Regarding `COc1cc2ncnc(Nc3ccc(F)c(Cl)c3)c2cc1NC(=O)/C=C/CN1CCC(N2CCN(C(=O)CCC(=O)NCCNc3cccc4c3C(=O)N(C3CCC(=O)NC3=O)C4=O)CC2)CC1` (centres unmarked) [SIAIS249104, (E)-N-(4-((3-chloro-4-fluorophenyl)amino)-7-methoxyquinazolin-6-yl)-4-(4-(4-(4-((2-((2-(2,6-dioxopiperidin-3-yl)-1,3-dioxoisoindolin-4-yl)amino)ethyl)amino)-4-oxobutanoyl)piperazin-1-yl)piperidin-1-yl)but-2-enamide], the IC50 in experiment [1] (WST (CCK8)) worked out at 37.6 nM; in experiment [2] (WST (CCK8)), 18.2 nM.

In the case of `COc1cc2ncnc(Nc3ccc(F)c(Cl)c3)c2cc1NC(=O)/C=C/CN1CCN(C(=O)CCCNc2cccc3c2CN(C2CCC(=O)NC2=O)C3=O)CC1` (centres unmarked) [SIAIS249057, (E)-N-(4-((3-chloro-4-fluorophenyl)amino)-7-methoxyquinazolin-6-yl)-4-(4-(4-((2-(2,6-dioxopiperidin-3-yl)-1-oxoisoindolin-4-yl)amino)butanoyl)piperazin-1-yl)but-2-enamide], the IC50 worked out at 7.8 nM in experiment [1] (WST (CCK8)) and 11.5 nM in experiment [2] (WST (CCK8)).

Turning to `COc1cc2ncnc(Nc3ccc(F)c(Cl)c3)c2cc1NC(=O)/C=C/CN1CCC(N2CCN(C(=O)CCc3cccc4c3CN(C3CCC(=O)NC3=O)C4=O)CC2)CC1` (centres unmarked) [SIAIS262052, (E)-N-(4-((3-chloro-4-fluorophenyl)amino)-7-methoxyquinazolin-6-yl)-4-(4-(4-(3-(2-(2,6-dioxopiperidin-3-yl)-1-oxoisoindolin-4-yl)propanoyl)piperazin-1-yl)piperidin-1-yl)but-2-enamide], the figures for the IC50 in experiment [1] (WST (CCK8)) and in experiment [2] (WST (CCK8)) were 1.3 nM and 1.4 nM, respectively.

Regarding `COc1cc2ncnc(Nc3ccc(F)c(Cl)c3)c2cc1NC(=O)/C=C/CN1CCN(C(=O)CNc2cccc3c2CN(C2CCC(=O)NC2=O)C3=O)CC1` (centres unmarked) [SIAIS249056, (E)-N-(4-((3-chloro-4-fluorophenyl)amino)-7-methoxyquinazolin-6-yl)-4-(4-(2-((2-(2,6-dioxopiperidin-3-yl)-1-oxoisoindolin-4-yl)amino)acetyl)piperazin-1-yl)but-2-enamide], the figures for the IC50 in experiment [1] (WST (CCK8)) and in experiment [2] (WST (CCK8)) were 4 nM and 7.3 nM, respectively.

`COc1cc2ncnc(Nc3ccc(F)c(Cl)c3)c2cc1NC(=O)/C=C/CN1CCN(C(=O)CCCSc2cccc3c2C(=O)N(C2CCC(=O)NC2=O)C3=O)CC1` (centres unmarked) [SIAIS249036, (E)-N-(4-((3-chloro-4-fluorophenyl)amino)-7-methoxyquinazolin-6-yl)-4-(4-(4-((2-(2,6-dioxopiperidin-3-yl)-1,3-dioxoisoindolin-4-yl)thio)butanoyl)piperazin-1-yl)but-2-enamide]: the figures for the IC50 in experiment [1] (WST (CCK8)) and in experiment [2] (WST (CCK8)) were 47.7 nM and 8.1 nM, respectively.

On to `COc1cc2ncnc(Nc3ccc(F)c(Cl)c3)c2cc1NC(=O)/C=C/CN1CCN(C(=O)CSc2cccc3c2CN(C2CCC(=O)NC2=O)C3=O)CC1` (centres unmarked) [SIAIS219185, (E)-N-(4-((3-chloro-4-fluorophenyl)amino)-7-methoxyquinazolin-6-yl)-4-(4-(2-((2-(2,6-dioxopiperidin-3-yl)-1-oxoisoindolin-4-yl)thio)acetyl)piperazin-1-yl)but-2-enamide], for which the IC50 in experiment [1] (WST (CCK8)) was 23.3 nM; in experiment [2] (WST (CCK8)), 15.7 nM.

Regarding `COc1cc2ncnc(Nc3ccc(F)c(Cl)c3)c2cc1OCCCN1CCN(C(=O)COCCOCCOCCSc2cccc3c2C(=O)N(C2CCC(=O)NC2=O)C3=O)CC1` (centres unmarked) [SIAIS184169, 4-((2-(2-(2-(2-(4-(3-((4-((3-chloro-4-fluorophenyl)amino)-7-methoxyquinazolin-6-yl)oxy)propyl)piperazin-1-yl)-2-oxoethoxy)ethoxy)ethoxy)ethyl)thio)-2-(2,6-dioxopiperidin-3-yl)isoindoline-1,3-dione], the IC50 worked out at 318 nM in experiment [1] (Table 4, gefitinib-based compounds, WST); 22 nM in experiment [2] (Table 4, gefitinib and sapitinib-based compounds, WST).

For the compound `C=CC(=O)Nc1cc2c(Nc3ccc(F)c(Cl)c3)ncnc2cc1OCCCN1CCN(C(=O)CCOCCOCCOCCOCCC(=O)N[C@H](C(=O)N2C[C@H](O)C[C@H]2C(=O)NCc2ccc(-c3scnc3C)cc2)C(C)(C)C)CC1` [SIAIS262130, (2S,4R)-1-((S)-19-(4-(3-((6-acrylamido-4-((3-chloro-4-fluorophenyl)amino)quinazolin-7-yl)oxy)propyl)piperazin-1-yl)-2-(tert-butyl)-4,19-dioxo-7,10,13,16-tetraoxa-3-azanonadecanoyl)-4-hydroxy-N-(4-(4-methylthiazol-5-yl)benzyl)pyrrolidine-2-carboxamide], the figures for the IC50 in experiment [1] (setting [3]) and in experiment [2] (setting [3]) were 179 nM and 47.2 nM, respectively.

As to `COc1cc2ncnc(Nc3ccc(F)c(Cl)c3)c2cc1NC(=O)/C=C/CN1CCC(N2CCN(CCCCC#Cc3cccc4c3CN(C3CCC(=O)NC3=O)C4=O)CC2)CC1` (centres unmarked) [SIAIS262051, (E)-N-(4-((3-chloro-4-fluorophenyl)amino)-7-methoxyquinazolin-6-yl)-4-(4-(4-(6-(2-(2,6-dioxopiperidin-3-yl)-1-oxoisoindolin-4-yl)hex-5-yn-1-yl)piperazin-1-yl)piperidin-1-yl)but-2-enamide], the IC50 in experiment [1] (WST (CCK8)) and in experiment [2] (WST (CCK8)) was 2.5 nM in each case.
